Results reported in US6596702B2, “Compositions for use in rehydration and nutrition during athletic exercise and methods of making same” (Elan Drug Delivery Limited, priority 1994, dated 2003).

Assays:
[1] = Tolerability of trehalose; type: in vivo; details: humans
[2] = Blood glucose levels with trehalose as carbohydrate source in a sports beverage; type: in vivo; details: trehalose as primary carbohydrate source in sports beverages
[3] = Osmolarity of aqueous trehalose solution (Roebling Micro-Osmometer); type: physicochemical
Protocol: 5.0 to 11.34 g of trehalose dihydrate is dry blended at an rpm greater than 18,000 until the consistency of is a uniform powder. Thereafter, the trehalose dihydrate is dissolved in distilled deionized water to a final volume of 100 mL and an osmolarity of 300 mOsm or less. For 11.34 g of trehalose the measured value was 287 mOsm. Measurement of the osmolarity of the final mixture is made on a Roebling Micro-Osmometer.

osmolarity ([3]; 1 molar solution of trehalose): 1665 mOsm
osmolarity, measured value ([3]; 11.34 g trehalose dihydrate dissolved in distilled deionized water to a final volume of 100 mL): 287 mOsm
osmolarity ([3]; 11.34 g trehalose dihydrate in distilled deionized water, final volume 100 mL, stated isotonic value): 300 mOsm
Compound: OC[C@H]1O[C@H](O[C@H]2O[C@H](CO)[C@@H](O)[C@H](O)[C@H]2O)[C@H](O)[C@@H](O)[C@@H]1O [trehalose, α-D-glucopyranosyl-α-D-glucopyranoside]
tolerability [1]: well tolerated
blood glucose levels over that of glucose alone [2]: two-fold
